# Test system: BVDV
# Experiment: microbe, parasite or virus in culture
# Type: cell-based
# Details: Bovine viral diarrhea virus isolates and strains, MDBK, read-out: BVDV EC50
row,SMILES,EC50 [µM]
1,"NC(=O)c1ncn([C@@H]2O[C@H](CO)[C@@H](O)[C@H]2O)n1 [Ribav, ribavirin, reference compound]",12
2,"C[C@@]1(O)[C@H](O)[C@@H](CO)O[C@H]1n1cnc2c(=O)[nH]c(N)nc21 [NM108, 2′-C-methyl-guanosine, reference compound]",1.5
3,COc1ccc(C(=O)Nc2ccc(Cn3nnc4ccccc43)cc2)cc1 [86c],3

# Same assay, conditions: Bovine viral diarrhea virus isolates and strains, MDBK, read-out: BVDV EC50, second value after slash
row,SMILES,EC50 [µM]
1,"NC(=O)c1ncn([C@@H]2O[C@H](CO)[C@@H](O)[C@H]2O)n1 [Ribav, ribavirin, reference compound]",18

# Test system: YFV
# Experiment: microbe, parasite or virus in culture
# Type: cell-based
# Details: Yellow fever virus, BHK-21, read-out: YFV EC50
row,SMILES,EC50 [nM]
1,"C[C@@]1(O)[C@H](O)[C@@H](CO)O[C@H]1n1cnc2c(=O)[nH]c(N)nc21 [NM108, 2′-C-methyl-guanosine, reference compound]",1000

# Test system: CVB5
# Experiment: microbe, parasite or virus in culture
# Type: cell-based, human enterovirus B (coxsackievirus B5)
# Details: not given
row,SMILES,antiviral activity (in words)
1,CCC(=O)Nc1cccc(Cn2nnc3cc(Cl)c(Cl)cc32)c1 [36a],no antiviral activity
2,CC(=O)Nc1cccc(Cn2nnc3cc(Cl)c(Cl)cc32)c1 [35a],no antiviral activity

# Same assay, conditions: Enterovirus B, CVB5, Vero 76, read-out: CVB5 EC50
row,SMILES,EC50 [µM]
1,"Cc1cc(CCCOc2c(C)cc(-c3noc(C(F)(F)F)n3)cc2C)on1 [Plec, pleconaril, reference compound]",0.005 ± 0.002
2,Nc1ccc(Cn2nnc3c(F)cccc32)cc1 [12e],100
3,Cc1cc2nnn(Cc3ccc(N)cc3)c2cc1C [12b],100

# Test system: Sb-1
# Experiment: microbe, parasite or virus in culture
# Type: cell-based, human enterovirus C (poliovirus type-1)
# Details: Enterovirus C, Vero 76, read-out: Sb-1 EC50
row,SMILES,EC50 [nM]
1,"Cc1cc(CCCOc2c(C)cc(-c3noc(C(F)(F)F)n3)cc2C)on1 [Plec, pleconaril, reference compound]",2000 ± 620

# Test system: HSV-1
# Experiment: microbe, parasite or virus in culture
# Type: cell-based, human herpesvirus 1
# Details: Human alphaherpesvirus 1, Vero 76, read-out: HSV-1 EC50
row,SMILES,EC50 [nM]
1,"Nc1nc2c(ncn2COCCO)c(=O)[nH]1 [ACG, acycloguanosine, reference compound]",2400 ± 600

# Test system: not given
# Experiment: not given
# Details: not given
row,SMILES,melting point [°C]
1,O=C(Nc1ccc(Cn2nnc3cc(F)c(F)cc32)cc1)c1ccc(Br)cc1,235 to 236
2,O=C(Nc1cccc(Cn2nnc3cc(Cl)c(Cl)cc32)c1)c1ccc(C(F)(F)F)cc1,211 to 213
3,CC(=O)Nc1cccc(Cn2nc3cc(C)c(C)cc3n2)c1,184 to 187
4,CCC(=O)Nc1ccc(Cn2nnc3c(F)cccc32)cc1,244 to 246
5,CCC(=O)Nc1cccc(Cn2nnc3cc(C)c(C)cc32)c1,155 to 157
6,O=C(Nc1cccc(Cn2nnc3cc(Cl)c(Cl)cc32)c1)c1ccc(F)cc1,184 to 186
7,CCNC(=O)Nc1cccc(Cn2nc3cc(C)c(C)cc3n2)c1,218 to 219
8,COc1ccc(C(=O)Nc2cccc(Cn3nnc4cc(C)c(C)cc43)c2)cc1,203 to 206
9,Nc1ccc(C(=O)Nc2cccc(Cn3nnc4cc(Cl)c(Cl)cc43)c2)cc1,101 to 102
10,O=C(Nc1ccc(Cn2nnc3ccccc32)cc1)c1ccc(OC(F)(F)F)cc1,229 to 231
11,O=C(Nc1ccc(Cn2nnc3cc(Cl)c(Cl)cc32)cc1)NC1CCCCC1,130 to 132
12,Cc1cc2nnn(Cc3cccc(NC(=O)c4ccc(C#N)cc4)c3)c2cc1C,242 to 247
13,CCC(=O)Nc1cccc(Cn2nnc3cc(Cl)c(Cl)cc32)c1 [36a],145 to 146
14,CCCNC(=O)Nc1ccc(Cn2nnc3cc(Cl)c(Cl)cc32)cc1,213 to 214
15,COc1cc(C(=O)Nc2cccc(Cn3nnc4cc(C)c(C)cc43)c2)cc(OC)c1OC [51b],160 to 162
16,CC(=O)Nc1ccc(Cn2nnc3cc(F)c(F)cc32)cc1,242 to 243
17,CCNC(=O)Nc1ccc(Cn2nnc3cc(F)c(F)cc32)cc1,286 to 287
18,Cc1cc2nnn(Cc3cccc(NC(=O)c4ccc(Br)cc4)c3)c2cc1C,237 to 238
19,CCCNC(=O)Nc1cccc(Cn2nnc3cc(C)c(C)cc32)c1,189 to 191
20,CCNC(=O)Nc1cccc(Cn2nnc3cc(Cl)c(Cl)cc32)c1,244 to 245
21,O=C(Nc1ccc(Cn2nnc3c(F)cccc32)cc1)c1ccccc1,214 to 217
22,O=C(Nc1cccc(Cn2nnc3cc(Cl)c(Cl)cc32)c1)c1ccc([N+](=O)[O-])cc1,217 to 218
23,COc1ccc(NC(=O)Nc2cccc(Cn3nnc4cc(C)c(C)cc43)c2)cc1,233 to 235
24,O=C(Nc1ccc(Cn2nnc3cc(F)c(F)cc32)cc1)c1ccc(Cl)cc1,263 to 264
25,Cc1cc2nnn(Cc3cccc(NC(=O)NC4CCCCC4)c3)c2cc1C,233 to 235
26,N#Cc1ccc(C(=O)Nc2cccc(Cn3nnc4cc(Cl)c(Cl)cc43)c2)cc1,167 to 169

row,SMILES,melting point [°C]
1,O=C(Nc1ccc(Cn2nnc3ccccc32)cc1)NC1CCCCC1,141 to 143
2,CCCCNC(=O)Nc1ccc(Cn2nnc3cc(F)c(F)cc32)cc1,193 to 194
3,Cc1cc2nnn(Cc3cccc(NC(=O)NC(C)(C)C)c3)c2cc1C,189 to 191
4,CCNC(=O)Nc1ccc(Cn2nnc3cc(Cl)c(Cl)cc32)cc1,211 to 212
5,O=C(Nc1ccc(Cn2nnc3cc(F)c(F)cc32)cc1)c1ccc([N+](=O)[O-])cc1,240 to 242
6,Cc1cc2nn(Cc3cccc(NC(=O)NC4CCCC4)c3)nc2cc1C,298 to 299
7,Cc1cc2nnn(Cc3cccc(NC(=O)c4ccc(F)cc4)c3)c2cc1C,143 to 147
8,Nc1ccc(Cn2nnc3c(F)cccc32)cc1 [12e],164 to 167
9,Cc1cc2nnn(Cc3cccc(NC(=O)NC4CCCC4)c3)c2cc1C,290 to 292
10,COc1ccc(C(=O)Nc2ccc(Cn3nnc4cc(C)c(C)cc43)cc2)cc1,196 to 198
11,Cc1cc2nn(Cc3cccc(NC(=O)NC4CCCCC4)c3)nc2cc1C,299 to 300
12,COc1ccc(C(=O)Nc2ccc(Cn3nnc4ccccc43)cc2)cc1 [86c],172 to 174
13,CCNC(=O)Nc1cccc(Cn2nnc3cc(C)c(C)cc32)c1,271 to 273
14,CCCNC(=O)Nc1cccc(Cn2nnc3cc(Cl)c(Cl)cc32)c1,> 300
15,Cc1cc2nn(Cc3cccc(NC(=O)c4ccc(Br)cc4)c3)nc2cc1C,267 to 268
16,CCCNC(=O)Nc1ccc(Cn2nnc3ccccc32)cc1,165 to 167
17,COc1ccc(C(=O)Nc2cccc(Cn3nnc4cc(Cl)c(Cl)cc43)c2)cc1,221 to 223
18,Cc1cc2nnn(Cc3ccc(NC(=O)c4ccc([N+](=O)[O-])cc4)cc3)c2cc1C,192 to 194
19,Cc1cc2nnn(Cc3ccc(N)cc3)c2cc1C [12b],184 to 186
20,CCC(C)NC(=O)Nc1cccc(Cn2nnc3cc(C)c(C)cc32)c1 (stereo not shown),202 to 204
21,Cc1cc2nnn(Cc3cccc(NC(=O)c4ccc([N+](=O)[O-])cc4)c3)c2cc1C,227 to 230
22,COc1ccc(C(=O)Nc2ccc(Cn3nnc4c(F)cccc43)cc2)cc1,266 to 268
23,CCCCNC(=O)Nc1cccc(Cn2nnc3cc(Cl)c(Cl)cc32)c1,232 to 233
24,Cc1ccc(C(=O)Nc2ccc(Cn3nnc4cc(F)c(F)cc43)cc2)cc1,297 to 299
25,CCCC(=O)Nc1ccc(Cn2nnc3c(F)cccc32)cc1,215 to 216
26,CCCNC(=O)Nc1ccc(Cn2nnc3cc(F)c(F)cc32)cc1,286 to 287

row,SMILES,melting point [°C]
1,CCCNC(=O)Nc1cccc(Cn2nc3cc(C)c(C)cc3n2)c1,204 to 206
2,O=C(Nc1cccc(Cn2nnc3cc(Cl)c(Cl)cc32)c1)NC1CCCC1,231 to 232
3,Cc1cc2nnn(Cc3cccc(NC(=O)Nc4ccc(F)cc4)c3)c2cc1C,245 to 247
4,Cc1cc2nnn(Cc3cccc(NC(=O)c4ccc(C(F)(F)F)cc4)c3)c2cc1C,201 to 203
5,Cc1ccc(C(=O)Nc2cccc(Cn3nnc4cc(Cl)c(Cl)cc43)c2)cc1,199 to 200
6,CCC(=O)Nc1cccc(Cn2nc3cc(C)c(C)cc3n2)c1,178 to 182
7,CCCCNC(=O)Nc1cccc(Cn2nnc3cc(C)c(C)cc32)c1,195 to 197
8,O=C(Nc1ccccc1)Nc1ccc(Cn2nnc3ccccc32)cc1,159 to 161
9,Cc1cc2nnn(Cc3cccc(NC(=O)Nc4ccc(Cl)cc4)c3)c2cc1C,249 to 251
10,Cc1cc2nnn(Cc3cccc(NC(=O)c4ccc(Cl)cc4)c3)c2cc1C [53b],227 to 229
11,O=C(Nc1ccc(Cn2nnc3c(F)cccc32)cc1)c1ccc([N+](=O)[O-])cc1,272 to 274
12,CC(=O)Nc1ccc(Cn2nnc3c(F)cccc32)cc1,233 to 234
13,COc1cc(NC(=O)Nc2cccc(Cn3nnc4cc(C)c(C)cc43)c2)cc(OC)c1OC,206 to 208
14,O=C(Nc1ccc(Cn2nnc3cc(F)c(F)cc32)cc1)NC1CCCCC1,203 to 204
15,O=C(Nc1ccc(Cn2nnc3ccccc32)cc1)c1ccc([N+](=O)[O-])cc1,245 to 246
16,O=C(Nc1ccc(Cn2nnc3cc(F)c(F)cc32)cc1)c1ccc(F)cc1,241 to 242
17,Cc1cc2nn(Cc3cccc(NC(=O)c4ccc([N+](=O)[O-])cc4)c3)nc2cc1C,184 to 187
18,Cc1ccc(C(=O)Nc2cccc(Cn3nnc4cc(C)c(C)cc43)c2)cc1,211 to 212
19,CCC(=O)Nc1ccc(Cn2nnc3cc(F)c(F)cc32)cc1,240 to 242
20,COc1cc(C(=O)Nc2ccc(Cn3nnc4ccccc43)cc2)cc(OC)c1OC,147 to 149
21,CCC(=O)Nc1ccc(Cn2nnc3ccccc32)cc1,192 to 195
22,CC(=O)Nc1cccc(Cn2nnc3cc(C)c(C)cc32)c1,198 to 200
23,Cc1cc2nn(Cc3cccc(NC(=O)c4ccc(Cl)cc4)c3)nc2cc1C,246 to 247
24,CCCCNC(=O)Nc1ccc(Cn2nnc3cc(Cl)c(Cl)cc32)cc1,216 to 217

# Test system: not listed separately
# Experiment: Cytotoxicity in mock-infected MDBK cells (MTT)
# Details: cattle (Bos taurus)
row,SMILES,CC50 [µM]
1,"NC(=O)c1ncn([C@@H]2O[C@H](CO)[C@@H](O)[C@H]2O)n1 [Ribav, ribavirin, reference compound]",52

# Same assay, conditions: cattle (Bos taurus), mock-infected
row,SMILES,CC50 [µM]
1,"NC(=O)c1ncn([C@@H]2O[C@H](CO)[C@@H](O)[C@H]2O)n1 [Ribav, ribavirin, reference compound]",35
2,"C[C@@]1(O)[C@H](O)[C@@H](CO)O[C@H]1n1cnc2c(=O)[nH]c(N)nc21 [NM108, 2′-C-methyl-guanosine, reference compound]",> 100
3,COc1ccc(C(=O)Nc2ccc(Cn3nnc4ccccc43)cc2)cc1 [86c],87

# Test system: not listed separately
# Experiment: Cytotoxicity in mock-infected Vero-76 monolayers
# Details: African green monkey (Cercopithecus aethiops), Vero-76 cell monolayers, mock-infected
row,SMILES,CC50 [µM]
1,"Cc1cc(CCCOc2c(C)cc(-c3noc(C(F)(F)F)n3)cc2C)on1 [Plec, pleconaril, reference compound]",77 ± 6.8
2,COc1ccc(C(=O)Nc2ccc(Cn3nnc4ccccc43)cc2)cc1 [86c],85
3,"Nc1nc2c(ncn2COCCO)c(=O)[nH]1 [ACG, acycloguanosine, reference compound]",> 100

# Test system: not listed separately
# Experiment: Cytotoxicity in mock-infected BHK-21 monolayers (MTT)
# Details: Syrian hamster (Mesocricetus auratus), BHK-21 cell monolayers, mock-infected
row,SMILES,CC50 [µM]
1,"C[C@@]1(O)[C@H](O)[C@@H](CO)O[C@H]1n1cnc2c(=O)[nH]c(N)nc21 [NM108, 2′-C-methyl-guanosine, reference compound]",> 100
2,COc1ccc(C(=O)Nc2ccc(Cn3nnc4ccccc43)cc2)cc1 [86c],95

# — publication PMC10054465, “Design, Synthesis, and Antiviral Activities of New Benzotriazole-Based Derivatives” (Pharmaceuticals, 2023)
